ChEMBL document CHEMBL5715260, “Selectivity Literature for EUbOPEN Chemogenomic Library” (2024)
Each block holds one molecule with its values, some of them ahead of it. Where a SMILES comes first, the peptide text is derived from it. The star is where a group is joined. Cbz = O=C(OCc1ccccc1)*; CH2Cl = ClC*; CH2F = FC*

Experiments:
Set-up in all cases: recommended concentration 1 uM
Caspase-9 [1] = target: T1, Caspase-9 (Homo sapiens, UniProt P55211); experiment: Selectivity interaction (Enzymatic assay) EUB0002177aAD CASP9
T1 sequence (P55211 whole entry): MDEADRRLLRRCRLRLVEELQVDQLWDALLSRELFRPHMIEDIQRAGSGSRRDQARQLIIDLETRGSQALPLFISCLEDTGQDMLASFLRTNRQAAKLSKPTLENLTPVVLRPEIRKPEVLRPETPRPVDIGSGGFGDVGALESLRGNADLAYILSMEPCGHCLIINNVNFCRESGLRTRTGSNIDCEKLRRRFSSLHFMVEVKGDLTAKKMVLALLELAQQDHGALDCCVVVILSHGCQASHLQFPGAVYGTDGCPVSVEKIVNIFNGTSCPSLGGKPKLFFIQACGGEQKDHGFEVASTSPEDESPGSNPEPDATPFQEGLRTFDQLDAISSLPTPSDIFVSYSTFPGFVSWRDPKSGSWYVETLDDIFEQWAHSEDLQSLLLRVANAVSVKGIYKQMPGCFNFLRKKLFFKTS

Caspase-10 = target: T2, Caspase-10 (Homo sapiens, UniProt Q92851); experiment: Selectivity interaction (Eurofins (enzymatic assay)) EUB0002201a CASP10
T2 sequence (Q92851 whole entry): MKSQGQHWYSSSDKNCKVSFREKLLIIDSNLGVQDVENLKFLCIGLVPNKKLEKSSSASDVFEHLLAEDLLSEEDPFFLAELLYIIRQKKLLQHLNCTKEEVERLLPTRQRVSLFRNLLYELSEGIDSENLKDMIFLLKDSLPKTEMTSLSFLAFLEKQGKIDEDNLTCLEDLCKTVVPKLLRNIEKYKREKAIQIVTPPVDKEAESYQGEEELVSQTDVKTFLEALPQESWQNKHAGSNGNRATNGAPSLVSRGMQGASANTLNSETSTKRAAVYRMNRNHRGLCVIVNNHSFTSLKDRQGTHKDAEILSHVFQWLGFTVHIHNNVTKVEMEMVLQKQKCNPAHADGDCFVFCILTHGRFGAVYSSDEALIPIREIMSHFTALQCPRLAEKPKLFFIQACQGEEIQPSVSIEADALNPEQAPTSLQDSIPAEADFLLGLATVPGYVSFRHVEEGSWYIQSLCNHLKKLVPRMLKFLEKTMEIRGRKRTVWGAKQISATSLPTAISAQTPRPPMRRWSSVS

Caspase-6 = Caspase-6 (Homo sapiens, UniProt P55212); experiment: Selectivity interaction (Eurofins (enzymatic assay)) EUB0002201a CASP6
Caspase-3 = Caspase-3 (Homo sapiens, UniProt P42574); experiment: Selectivity interaction (Eurofins (enzymatic assay)) EUB0002201a CASP3
Caspase-2 = Caspase-2 (Homo sapiens, UniProt P42575); experiment: Selectivity interaction (Eurofins (enzymatic assay)) EUB0002201a CASP2
Caspase-5 [2] = target: T3, Caspase-5 (Homo sapiens, UniProt P51878); experiment: Selectivity interaction (Eurofins (enzymatic assay)) EUB0002201a CASP5
T3 sequence (P51878 whole entry): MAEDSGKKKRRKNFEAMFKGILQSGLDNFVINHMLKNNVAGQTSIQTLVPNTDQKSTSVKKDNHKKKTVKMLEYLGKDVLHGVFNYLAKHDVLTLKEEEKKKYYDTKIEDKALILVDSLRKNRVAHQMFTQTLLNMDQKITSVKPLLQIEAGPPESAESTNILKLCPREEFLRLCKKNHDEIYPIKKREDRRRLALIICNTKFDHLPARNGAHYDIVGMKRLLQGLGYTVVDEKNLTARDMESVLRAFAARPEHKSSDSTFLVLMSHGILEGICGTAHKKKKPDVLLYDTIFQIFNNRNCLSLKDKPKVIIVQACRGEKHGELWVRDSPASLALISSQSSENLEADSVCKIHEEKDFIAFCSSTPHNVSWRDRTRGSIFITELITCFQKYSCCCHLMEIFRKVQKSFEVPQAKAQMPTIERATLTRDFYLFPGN

Caspase-7 [3] = target: T4, Caspase-7 (Homo sapiens, UniProt P55210); experiment: Selectivity interaction (Eurofins (enzymatic assay)) EUB0002201a CASP7
T4 sequence (P55210 whole entry): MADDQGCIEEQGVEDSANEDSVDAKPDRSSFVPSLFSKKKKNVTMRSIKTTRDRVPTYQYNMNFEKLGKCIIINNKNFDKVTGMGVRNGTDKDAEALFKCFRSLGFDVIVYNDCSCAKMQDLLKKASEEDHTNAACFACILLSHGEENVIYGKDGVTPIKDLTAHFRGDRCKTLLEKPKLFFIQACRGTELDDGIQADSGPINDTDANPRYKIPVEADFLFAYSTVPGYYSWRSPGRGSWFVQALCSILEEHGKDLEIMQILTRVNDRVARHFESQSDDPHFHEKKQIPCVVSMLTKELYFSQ

Caspase-8 [4] = target: T5, Caspase-8 (Homo sapiens, UniProt Q14790); experiment: Selectivity interaction (Eurofins (enzymatic assay)) EUB0002201a CASP8
Caspase-9 [5] = target: T1, Caspase-9; experiment: Selectivity interaction (Eurofins (enzymatic assay)) EUB0002201a CASP9
Caspase-8 [6] = target: T5, Caspase-8; experiment: Selectivity interaction (Eurofins (enzymatic assay)) EUB0002202a CASP8
Caspase-9 [7] = target: T1, Caspase-9; experiment: Selectivity interaction (Eurofins (enzymatic assay)) EUB0002202a CASP9
Caspase-7 [8] = target: T4, Caspase-7; experiment: Selectivity interaction (Eurofins (enzymatic assay)) EUB0002202a CASP7
Caspase-5 [9] = target: T3, Caspase-5; experiment: (§1) Selectivity interaction (Enzymatic assay) EUB0002176a CASP5
Caspase-5 [10] = target: T3, Caspase-5; experiment: as §1; remark: listed apart in the source
[11] = target: T6, Histone-lysine N-methyltransferase 2A (Homo sapiens, UniProt Q03164); experiment: (§2) Selectivity interaction (Enzymatic assay) EUB0002166aAD MLL
[12] = target: T6, Histone-lysine N-methyltransferase 2A; experiment: as §2; remark: listed apart in the source
Caspase-7 [13] = target: T4, Caspase-7; experiment: (§3) Selectivity interaction (Enzymatic assay) EUB0002178aAD CASP7
Caspase-9 [14] = target: T1, Caspase-9; experiment: (§4) Selectivity interaction (Enzymatic assay) EUB0002178aAD CASP9
Caspase-9 [15] = target: T1, Caspase-9; experiment: as §4; remark: listed apart in the source
Caspase-8 [16] = target: T5, Caspase-8; experiment: (§5) Selectivity interaction (Enzymatic assay) EUB0002178aAD CASP8
Caspase-7 [17] = target: T4, Caspase-7; experiment: as §3; remark: listed apart in the source
Caspase-8 [18] = target: T5, Caspase-8; experiment: as §5; remark: listed apart in the source

T5 sequence (Q14790 217-374 limits assumed): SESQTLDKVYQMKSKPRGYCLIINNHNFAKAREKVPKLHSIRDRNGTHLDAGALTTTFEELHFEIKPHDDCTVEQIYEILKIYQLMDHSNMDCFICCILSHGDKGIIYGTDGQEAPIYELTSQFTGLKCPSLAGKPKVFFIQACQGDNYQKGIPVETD
T5 sequence (Q14790 385-479 limits assumed): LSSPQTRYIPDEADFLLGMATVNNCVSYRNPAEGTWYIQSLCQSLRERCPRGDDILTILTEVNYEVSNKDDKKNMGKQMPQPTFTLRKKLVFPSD
T6 sequence (Q03164 1-2718 limits assumed): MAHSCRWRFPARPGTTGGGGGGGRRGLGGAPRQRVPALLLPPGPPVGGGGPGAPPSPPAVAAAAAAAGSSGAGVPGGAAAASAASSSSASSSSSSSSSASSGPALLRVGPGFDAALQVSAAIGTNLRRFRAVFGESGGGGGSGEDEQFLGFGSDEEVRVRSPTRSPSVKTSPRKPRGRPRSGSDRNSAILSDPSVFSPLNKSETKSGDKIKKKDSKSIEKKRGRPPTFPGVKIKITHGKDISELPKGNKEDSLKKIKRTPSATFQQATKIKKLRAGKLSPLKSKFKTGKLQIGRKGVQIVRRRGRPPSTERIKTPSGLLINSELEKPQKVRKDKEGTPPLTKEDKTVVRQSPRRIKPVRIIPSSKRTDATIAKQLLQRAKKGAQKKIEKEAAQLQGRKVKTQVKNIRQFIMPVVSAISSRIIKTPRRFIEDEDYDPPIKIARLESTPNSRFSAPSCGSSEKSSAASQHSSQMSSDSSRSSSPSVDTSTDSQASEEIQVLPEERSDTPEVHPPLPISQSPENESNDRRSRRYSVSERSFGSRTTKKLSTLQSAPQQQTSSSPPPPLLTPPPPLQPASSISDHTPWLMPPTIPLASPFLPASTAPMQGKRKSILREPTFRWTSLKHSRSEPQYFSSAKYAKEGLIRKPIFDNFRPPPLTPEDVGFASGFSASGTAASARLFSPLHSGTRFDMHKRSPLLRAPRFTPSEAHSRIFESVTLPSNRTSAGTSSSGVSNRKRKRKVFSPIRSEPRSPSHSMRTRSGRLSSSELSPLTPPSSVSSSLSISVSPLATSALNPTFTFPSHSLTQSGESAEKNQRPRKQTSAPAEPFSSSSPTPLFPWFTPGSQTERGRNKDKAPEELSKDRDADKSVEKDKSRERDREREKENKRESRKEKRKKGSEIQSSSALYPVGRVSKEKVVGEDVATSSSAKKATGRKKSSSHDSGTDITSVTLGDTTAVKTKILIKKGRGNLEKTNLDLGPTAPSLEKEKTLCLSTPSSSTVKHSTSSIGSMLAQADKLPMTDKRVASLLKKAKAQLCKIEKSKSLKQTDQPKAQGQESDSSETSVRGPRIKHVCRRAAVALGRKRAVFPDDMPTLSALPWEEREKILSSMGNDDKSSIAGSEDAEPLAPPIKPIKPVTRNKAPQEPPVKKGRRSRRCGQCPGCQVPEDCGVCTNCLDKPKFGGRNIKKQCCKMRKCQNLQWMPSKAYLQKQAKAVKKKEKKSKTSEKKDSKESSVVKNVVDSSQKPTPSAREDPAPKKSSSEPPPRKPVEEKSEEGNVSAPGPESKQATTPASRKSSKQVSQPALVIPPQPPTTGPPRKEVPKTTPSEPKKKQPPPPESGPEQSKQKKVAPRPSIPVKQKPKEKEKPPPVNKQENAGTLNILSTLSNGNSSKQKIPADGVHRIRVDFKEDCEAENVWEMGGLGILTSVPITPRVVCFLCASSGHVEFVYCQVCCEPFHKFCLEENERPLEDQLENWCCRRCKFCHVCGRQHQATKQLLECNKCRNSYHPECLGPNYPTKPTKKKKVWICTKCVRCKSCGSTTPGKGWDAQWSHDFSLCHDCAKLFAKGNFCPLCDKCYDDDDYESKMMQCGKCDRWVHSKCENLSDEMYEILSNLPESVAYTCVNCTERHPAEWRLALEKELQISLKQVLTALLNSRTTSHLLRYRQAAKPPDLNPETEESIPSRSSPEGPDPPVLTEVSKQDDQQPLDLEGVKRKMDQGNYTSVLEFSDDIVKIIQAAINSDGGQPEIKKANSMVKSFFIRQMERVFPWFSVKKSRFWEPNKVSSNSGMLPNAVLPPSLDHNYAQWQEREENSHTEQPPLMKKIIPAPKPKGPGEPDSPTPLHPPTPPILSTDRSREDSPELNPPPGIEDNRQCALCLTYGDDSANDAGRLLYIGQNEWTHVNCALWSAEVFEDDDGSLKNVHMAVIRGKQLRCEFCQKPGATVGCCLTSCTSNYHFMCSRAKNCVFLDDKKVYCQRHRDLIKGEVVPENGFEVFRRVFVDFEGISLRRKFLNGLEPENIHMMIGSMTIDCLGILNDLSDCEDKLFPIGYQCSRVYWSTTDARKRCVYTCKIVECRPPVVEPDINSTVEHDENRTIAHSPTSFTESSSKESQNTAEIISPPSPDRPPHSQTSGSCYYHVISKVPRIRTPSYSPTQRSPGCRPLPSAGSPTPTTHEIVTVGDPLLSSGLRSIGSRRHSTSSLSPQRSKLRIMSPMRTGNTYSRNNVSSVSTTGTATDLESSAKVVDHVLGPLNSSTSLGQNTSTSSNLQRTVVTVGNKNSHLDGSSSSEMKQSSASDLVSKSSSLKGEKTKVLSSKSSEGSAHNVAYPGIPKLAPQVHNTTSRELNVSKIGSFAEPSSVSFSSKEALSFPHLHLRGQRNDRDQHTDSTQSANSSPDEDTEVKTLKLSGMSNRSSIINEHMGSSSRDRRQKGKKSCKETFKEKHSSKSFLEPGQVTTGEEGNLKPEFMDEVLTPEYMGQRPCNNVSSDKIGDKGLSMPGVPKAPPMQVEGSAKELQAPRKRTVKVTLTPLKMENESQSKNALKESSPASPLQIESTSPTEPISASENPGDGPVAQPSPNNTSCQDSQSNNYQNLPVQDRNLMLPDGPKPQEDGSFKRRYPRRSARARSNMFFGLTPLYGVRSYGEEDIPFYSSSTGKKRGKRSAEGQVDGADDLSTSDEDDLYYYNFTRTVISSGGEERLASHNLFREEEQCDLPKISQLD
T6 sequence (Q03164 2719-3969 limits assumed): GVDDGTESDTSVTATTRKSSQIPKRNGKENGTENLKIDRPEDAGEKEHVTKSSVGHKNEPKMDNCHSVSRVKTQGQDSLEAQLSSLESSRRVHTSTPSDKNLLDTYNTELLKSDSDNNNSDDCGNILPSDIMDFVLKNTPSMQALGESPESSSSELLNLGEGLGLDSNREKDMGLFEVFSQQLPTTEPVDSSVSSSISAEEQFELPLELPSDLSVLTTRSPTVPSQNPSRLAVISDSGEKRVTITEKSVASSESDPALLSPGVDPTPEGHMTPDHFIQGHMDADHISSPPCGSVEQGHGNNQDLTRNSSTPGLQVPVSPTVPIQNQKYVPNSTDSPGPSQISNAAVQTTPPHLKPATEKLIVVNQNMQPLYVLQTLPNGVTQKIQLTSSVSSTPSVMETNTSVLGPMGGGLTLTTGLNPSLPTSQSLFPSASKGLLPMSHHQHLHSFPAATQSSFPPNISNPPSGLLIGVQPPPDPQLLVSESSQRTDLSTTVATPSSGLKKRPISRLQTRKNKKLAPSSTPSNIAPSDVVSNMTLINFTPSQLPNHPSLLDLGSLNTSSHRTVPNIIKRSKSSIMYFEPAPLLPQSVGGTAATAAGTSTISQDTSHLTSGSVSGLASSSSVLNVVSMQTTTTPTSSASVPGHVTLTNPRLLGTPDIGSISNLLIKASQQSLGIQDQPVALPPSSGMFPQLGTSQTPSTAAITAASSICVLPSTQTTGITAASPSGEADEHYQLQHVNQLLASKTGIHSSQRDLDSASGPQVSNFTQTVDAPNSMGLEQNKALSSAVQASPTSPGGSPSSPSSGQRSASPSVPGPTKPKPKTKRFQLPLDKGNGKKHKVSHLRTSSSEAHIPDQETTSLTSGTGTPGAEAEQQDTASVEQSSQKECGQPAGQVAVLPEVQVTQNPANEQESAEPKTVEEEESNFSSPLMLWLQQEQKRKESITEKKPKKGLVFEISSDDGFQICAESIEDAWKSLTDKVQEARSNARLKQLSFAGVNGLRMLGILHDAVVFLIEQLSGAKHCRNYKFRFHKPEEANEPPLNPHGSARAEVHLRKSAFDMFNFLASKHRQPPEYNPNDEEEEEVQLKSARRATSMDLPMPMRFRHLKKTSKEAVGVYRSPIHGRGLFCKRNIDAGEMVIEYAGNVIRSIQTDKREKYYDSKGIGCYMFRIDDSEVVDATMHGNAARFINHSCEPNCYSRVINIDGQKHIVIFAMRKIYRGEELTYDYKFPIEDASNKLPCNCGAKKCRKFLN
Caspase-6, sequence (P55212 24-179 limits assumed): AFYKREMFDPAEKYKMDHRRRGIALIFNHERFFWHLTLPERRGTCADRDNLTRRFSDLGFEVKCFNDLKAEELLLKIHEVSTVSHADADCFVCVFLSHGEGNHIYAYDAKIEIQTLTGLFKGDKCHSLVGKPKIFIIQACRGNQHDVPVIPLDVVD
Caspase-6, sequence (P55212 194-293 limits assumed): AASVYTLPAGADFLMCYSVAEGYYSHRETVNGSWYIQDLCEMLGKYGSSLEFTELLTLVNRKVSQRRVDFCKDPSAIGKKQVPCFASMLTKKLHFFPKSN
Caspase-2, sequence (P42575 170-325 limits assumed): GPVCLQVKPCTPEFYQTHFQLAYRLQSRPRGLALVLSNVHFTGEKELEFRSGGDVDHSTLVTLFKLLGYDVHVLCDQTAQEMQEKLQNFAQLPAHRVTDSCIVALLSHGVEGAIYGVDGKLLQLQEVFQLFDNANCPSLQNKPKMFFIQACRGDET
Caspase-2, sequence (P42575 334-452 limits assumed): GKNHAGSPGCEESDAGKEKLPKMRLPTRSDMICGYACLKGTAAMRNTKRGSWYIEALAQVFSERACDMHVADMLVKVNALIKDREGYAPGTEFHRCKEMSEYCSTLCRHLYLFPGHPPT

SMILES: CC[C@H](C)[C@H](NC(C)=O)C(=O)N[C@@H](CCC(=O)O)C(=O)N[C@H](C(=O)N[C@H](C=O)CC(=O)O)[C@@H](C)O (Ac-IETD-aldehyde)
IC50 (Caspase-9 [1]): 35 nM

SMILES: CC(=O)N[C@@H](CC(C)C)C(=O)N[C@@H](CCC(=O)O)C(=O)N[C@H](C(=O)N[C@H](C=O)CC(=O)O)C(C)C (Ac-LEVD-aldehyde)
IC50 (Caspase-10): 140 nM
IC50 (Caspase-6): 57 nM
IC50 (Caspase-3): 57 nM
IC50 (Caspase-2): 1700 nM
IC50 (Caspase-5 [2]): 140 nM
IC50 (Caspase-7 [3]): 24 nM
IC50 (Caspase-8 [4]): 3.3 nM
IC50 (Caspase-9 [5]): 2.1 nM

SMILES: Cc1nc(F)ccc1-c1cc(Cn2ccn(C)c2=N)cc(C(=O)NCc2ccc(Cl)c(Cl)c2)c1
IC50 [11]: 19.9 nM
IC50 [12]: 19.9 nM

SMILES: CC[C@H](C)[C@H](NC(=O)[C@H](CCC(=O)O)NC(=O)[C@@H](NC(C)=O)C(C)C)C(=O)N[C@H](C=O)CC(=O)O (Ac-VEID-aldehyde)
IC50 (Caspase-7 [13]): 162 nM
IC50 (Caspase-9 [14]): 2 nM
IC50 (Caspase-9 [15]): 2 nM
IC50 (Caspase-8 [16]): 26 nM
IC50 (Caspase-7 [17]): 162 nM
IC50 (Caspase-8 [18]): 26 nM

Second part, the molecule after the results:

IC50 (Caspase-8 [6]): 220 nM
IC50 (Caspase-9 [7]): 240 nM
IC50 (Caspase-7 [8]): 580 nM
SMILES: COC(=O)CC[C@H](NC(=O)[C@H](Cc1c[nH]c2ccccc12)NC(=O)OCc1ccccc1)C(=O)N[C@@H](Cc1cnc[nH]1)C(=O)N[C@@H](CC(=O)OC)C(=O)CF (Cbz-WE(OMe)HD(OMe)-CH2F)

IC50 (Caspase-5 [9]): 329 nM
IC50 (Caspase-5 [10]): 329 nM
SMILES: CC(=O)N[C@@H](Cc1ccccc1)C(=O)N[C@@H](CC(C)C)C(=O)N[C@H](C(=O)N[C@@H](CC(=O)O)C(=O)CCl)[C@@H](C)O (Ac-FLTD-CH2Cl)
